Results reported in patent publication US7842488B2, “Polynucleotides encoding a human 3-phosphoinositide- dependent protein kinase” (Medical Research Council, priority 1997, dated 2010).

Experiments:
[1] = system: PDK1; experiment: PDK1 assay: activation of GST-PKBα by purified PDK1 with phospholipid vesicles; assay type: biochemical, rabbit; conditions: for fold-activation of GST-PKBα (PDK1 activity) / activation of PDK1 (in words): lipid 10 μM in vesicles of 100 μM PtdCho, 100 μM PtdSer, 30 min at 30° C.; for order of level of activation of the 3-phosphoinositide-dependent kinase (most effective first): rabbit skeletal muscle PDK1, FIG. 6; for activation and phosphorylation of GST-PKBα by PDK1 in the presence of Triton X-100: 0.5% (by vol) in the assay
Protocol: (§1) Assay of PDK1. The assay was carried out in two stages; in the first, GST-PKBα was incubated with PDK1 in the presence of MgATP and phospholipid vesicles to permit activation of GST-PKBα.
(§2) After 10 min at 30° C., the reactions were terminated by spotting the reaction mixture on to p81 phosphocellulose paper. The papers were washed in phosphoric acid and analysed as described previously. […] The basal GST-PKBα activity is the activity measured in the absence of PDK1.

[2] = system: PDK1; experiment: Phosphorylation of GST-PKBα by PDK1 with [γ32P]ATP; assay type: biochemical, rabbit; conditions: lipid 10 μM in PtdCho/PtdSer vesicles
Protocol: Solutions were stored at 4° C. at concentrations 10-fold higher than those required in the assay and used within 2-4 days.
(§3) Phosphorylation of GST-PKB ? by PDK1. The incubations were identical to the Stage 1 described above except that [γ^32P] ATP (200-400 cpm/pmol) was used instead of unlabelled ATP. The reactions were terminated by making the solution 1% (by mass) in SDS. […] The Coomassie blue-staining bands corresponding to GST-PKBα were excised and the ^32P-radioactivity associated with each band was quantified.

[3] = target: T1, GST-PKBα (Homo sapiens, UniProt P31749); experiment: Activity of PDK1 preparations towards GST-PKBα; assay type: biochemical; conditions: for phosphorylation of GST-PKBα: PtdIns(3,4,5)P3 lipids, high enzyme concentration; for specific activity towards GST-PKBα: in the presence of PtdIns(3,4,5)P3; for fold increase in GST-PKBα activity: in the presence of PtdIns(3,4,5)P3 vesicles
T1 construct: generate a full length cDNA encoding the PKBα gene; made in house; host or cells: human embryonic kidney 293 cells (pEBG2T), serum starved
Protocol: as §1, §2, §3

T1 sequence (P31749 whole entry): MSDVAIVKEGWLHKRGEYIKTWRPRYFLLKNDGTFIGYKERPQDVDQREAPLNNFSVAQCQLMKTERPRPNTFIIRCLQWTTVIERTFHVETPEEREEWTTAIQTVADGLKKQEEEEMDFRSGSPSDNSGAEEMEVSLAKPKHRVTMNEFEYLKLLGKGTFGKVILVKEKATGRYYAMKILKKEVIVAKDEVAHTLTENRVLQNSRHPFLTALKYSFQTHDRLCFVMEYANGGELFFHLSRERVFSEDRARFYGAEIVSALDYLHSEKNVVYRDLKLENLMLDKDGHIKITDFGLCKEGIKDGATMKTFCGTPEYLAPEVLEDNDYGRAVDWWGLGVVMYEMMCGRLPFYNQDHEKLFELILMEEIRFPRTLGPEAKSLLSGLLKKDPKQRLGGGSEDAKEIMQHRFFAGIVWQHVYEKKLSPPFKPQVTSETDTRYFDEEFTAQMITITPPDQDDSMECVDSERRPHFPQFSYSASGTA

## CCCCC/C=C\C/C=C\C/C=C\C/C=C\CCCC(=O)OC(COC(=O)CCCCCCCCCCCCCCCCC)COP(=O)(O)OC1C(O)C(OP(=O)(O)O)C(OP(=O)(O)O)C(OP(=O)(O)O)C1O (single isomer, unassigned) [Lipid 3, D-enantiomer of sn-2-arachidonyl-3-stearoyl PtdIns(3,4,5)P3]
[1]; 3-stearoyl D-PtdIns(3,4,5)P3
  fold-activation of GST-PKBα (PDK1 activity): 16 fold
[1]; listed as D-enantiomer of sn-2-arachidonyl-3-stearoyl PtdIns(3,4,5)P3
  activation of PDK1 (in words): potently activated PDK1
[1]
  order of level of activation of the 3-phosphoinositide-dependent kinase (most effective first): 2

## O=P(O)(O)O[C@H]1[C@H](O)[C@@H](OP(=O)(O)O)[C@H](OP(=O)(O)O)[C@@H](OP(=O)(O)O)[C@H]1O [IP4, inositol 1,3,4,5-tetrakisphosphate]
[1]
  activation of PDK1 (in words): no significant activation
[1]; listed as Ins(1,3,4,5)P4
  activation of PDK1 (in words): did not activate PDK1
[1]; listed as inositol 1,3,4,5-tetrakisphosphate
  activation of PDK1 (in words): did not activate PDK1 at all
[2]
  phosphorylation of GST-PKBα by PDK1 (in words): did not activate PDK1 or induce the phosphorylation

## PtdIns 4P [Lipid 10]
[1]
  activation of PDK1 (in words): no significant activation
[1]; listed as PtdIns(4)P
  activation of PDK1 (in words): did not activate PDK1 at all
[1]; listed as lipid 10
  activation of PDK1 (in words): did not activate PDK1
[2]
  phosphorylation of GST-PKBα by PDK1 (in words): did not activate PDK1 or induce the phosphorylation

## Triton X-100
[1]; listed as Triton X100
  activation and phosphorylation of GST-PKBα by PDK1 in the presence of Triton X-100: completely inhibits
[1]; listed as Triton-X100
  activation and phosphorylation of GST-PKBα by PDK1 in the presence of Triton X-100: prevented

## CCCCC/C=C\C/C=C\CCCCCCCC(=O)OCC(COP(=O)(O)OC1C(O)C(OP(=O)(O)O)C(OP(=O)(O)O)C(OP(=O)(O)O)C1O)OC(=O)CCCCCCC/C=C\C/C=C\CCCCC (racemic) [Lipid 5, Racemic sn-1,2-dilinoleoyl PtdIns(3,4,5)P3]
[1]
  fold-activation of GST-PKBα (PDK1 activity): 36 fold
  order of level of activation of the 3-phosphoinositide-dependent kinase (most effective first): 1

## protein tyrosine phosphatase 1B: protein tyrosine phosphatase 1B
[1]; high concentrations of phosphatase
  PDK1 activity after treatment with phosphatase: no effect on activity

## GST-PDK1: residues 52-556 of human PDK1 expressed in 293 cells as fusion with glutathione S-transferase
[3]
  phosphorylation of GST-PKBα: 0.75 mol phosphate per mol protein
  specific activity towards GST-PKBα: 78 000 U/mg
  fold increase in GST-PKBα activity: 35 fold

## CCCCCCCCCCCCCCCC(=O)OC[C@H](COP(=O)(O)OC1C(O)C(OP(=O)(O)O)C(O)C(OP(=O)(O)O)C1O)OC(=O)CCCCCCCCCCCCCCC (some centres unmarked) [Lipid 8, sn-1,2 di-palmitoyl PtdIns(3,5)P2]
[1]
  activation of PDK1 (in words): no significant activation
[1]; listed as PtdIns(3,5)P2
  activation of PDK1 (in words): did not activate PDK1 at all
[1]; listed as lipid 8
  activation of PDK1 (in words): did not activate PDK1
[2]
  phosphorylation of GST-PKBα by PDK1 (in words): did not activate PDK1 or induce the phosphorylation

## CCCCCCCCCCCCCCCC(=O)OCC(COP(=O)(O)OC1C(O)C(OP(=O)(O)O)C(OP(=O)(O)O)C(OP(=O)(O)O)C1O)OC(=O)CCCCCCCCCCCCCCC (centres unmarked) [Lipid 6, sn-1,2 di-palmitoyl PtdIns(3,4,5)P3]
[1]
  fold less effective in activating PDK1 than the sn-1-stearoyl-2-arachidonyl and sn-2-arachidonyl-3-stearoyl derivatives: ~3 fold
  fold-activation of GST-PKBα (PDK1 activity): about 6 fold
  order of level of activation of the 3-phosphoinositide-dependent kinase (most effective first): 4
[1]; listed as sn-1,2-dipalmitoyl D-PtdIns(3,4,5)P3
  fold-activation of GST-PKBα (PDK1 activity): 5.5 fold

## CCCCC/C=C\C/C=C\C/C=C\C/C=C\CCCC(=O)OC(COC(=O)CCCCCCCCCCCCCCCCC)COP(=O)(O)OC1C(O)C(OP(=O)(O)O)C(OP(=O)(O)O)C(OP(=O)(O)O)C1O (single isomer, unassigned) [Lipid 4, L-enantiomer of sn-2-arachidonyl-3-stearoyl PtdIns(3,4,5)P3]
[1]
  activation of PDK1 (in words): no significant activation
[1]; 3-stearoyl L-PtdIns(3,4,5)P3
  fold-activation of GST-PKBα (PDK1 activity): 2.3 fold
[1]; listed as L-enantiomer of sn-2-arachidonyl-3-stearoyl PtdIns(3,4,5)P3
  activation of PDK1 (in words): almost ineffective

B1: GST-D223A-PDK1: catalytically inactive GST-PDK1 mutant in which Asp223 was changed to Ala (protein, UniProt O15530 1-556, looked up, variant D223A)
3-phosphoinositide-dependent …: MARTTSQLYDAVPIQSSVVLCSCPSPSMVRTQTESSTPPGIPGGSRQGPAMDGTAAEPRPGAGSLQHAQPPPQPRKKRPEDFKFGKILGEGSFSTVVLARELATSREYAIKILEKRHIIKENKVPYVTRERDVMSRLDHPFFVKLYFTFQDDEKLYFGLSYAKNGELLKYIRKIGSFDETCTRFYTAEIVSALEYLHGKGIIHRDLKPENILLNEDMHIQITAFGTAKVLSPESKQARANSFVGTAQYVSPELLTEKSACKSSDLWALGCIIYQLVAGLPPFRAGNEYLIFQKIIKLEYDFPEKFFPKARDLVEKLLVLDATKRLGCEEMEGYGPLKAHPFFESVTWENLHQQTPPKLTAYLPAMSEDDEDCYGNYDNLLSQFGCMQVSSSSSSHSLSASDTGLPQRSGSNIEQYIHDLDSNSFELDLQFSEDEKRLLLEKQAGGNPWHQFVENNLILKMGPVDKRKGLFARRRQLLLTEGPHLYYVDPVNKVLKGEIPWSQELRPEAKNFKTFFVHTPNRTYYLMDPSGNAHKWCRKIQEVWRQRYQSHPDAAVQ
modifications: GST fusion tag
[3]; PtdCho/PtdSer lipid vesicles containing PtdIns(3,4,5)P3
  phosphorylation and activation of GST-PKBα (in words): did not phosphorylate or active GST-PKBα

B2: GST-DSTPK61: residues 1-752 of Drosophila DSTPK61 expressed in E. coli as GST fusion (protein)
chain: MKCKSWSNKINNYVVRKIKSIKINGTQQQLQLPGSGASGIAAAAVITVASDCGENCSSNGTEHQQHFNIATTTATSATEATMPAMAKEKASATVSLGESNFRDINLKDLAVVVEAASRLHHQQNVCGCGAVSSTENNNNSRYGSSKYLTNGHTSPLAAAVASNSSSVATTPHCRMLHNCSLQQYQNDIRQQTEILDMLRQQHQQGYQSQQQQQQPQQQQEQQQQQEQSQQQQQLQNPAPRRSPNDFIFGRYIGEGSYSIVYLAVDIHSRREYAIKVCEKRLILRERKQDYIKREREVMHQMTNVPGFVNLSCTFQDQRSLYFVMTYARKGDMLPYINRVGSFDVACTRHYAAELLLACEHMHRRNVVHRDLKPENILLDEDMHTLIADFGSAKVMTAHERALATEHCSEQRRSNSDEDDEDSDRLENEDEDFYDRDSEELDDGDDEQQQEEMDSPRHRQRRYNRHRKASFVGTAQYVSPEVLQNGPITPAADLWALGCIVYQMIAGLPPFRGSNDYVIFKEILDCAVDFPQGFDKDAEDLVRKLLRVDPRDRLGAQDEFGYYESIRAHPFFAGIDWQTLRQQTPPPIYPYLPGVSQDEDFRSSYTVPGDLEPGLDERQISRLLSAELGVGSSVAMPVKRSTAKNSFDLNDAEKLQRLEQQKTDKWHVFADGEVILKKGFVNKRKGLFARKRMLLLTTGPRLIYIDPVQMIKKGEIPWSPDLRAEYKNFKIFFVHTPNRTYYLDDPEGYAIHW
modifications: left off: a dimerising Fc or GST
notes: residues 1-752 of Drosophila DSTPK61 expressed in E. coli as GST fusion
[3]
  phosphorylation of GST-PKBα: 0.75 mol phosphate per mol protein
  specific activity towards GST-PKBα: 280 U/mg
  fold increase in GST-PKBα activity: 35 fold

B3: GST-ΔPH-PDK1: PDK1 mutant lacking the putative C-terminal PH domain, residues 1-450, GST fusion (protein, UniProt O15530 1-450, looked up, fragment)
chain: MARTTSQLYDAVPIQSSVVLCSCPSPSMVRTQTESSTPPGIPGGSRQGPAMDGTAAEPRPGAGSLQHAQPPPQPRKKRPEDFKFGKILGEGSFSTVVLARELATSREYAIKILEKRHIIKENKVPYVTRERDVMSRLDHPFFVKLYFTFQDDEKLYFGLSYAKNGELLKYIRKIGSFDETCTRFYTAEIVSALEYLHGKGIIHRDLKPENILLNEDMHIQITDFGTAKVLSPESKQARANSFVGTAQYVSPELLTEKSACKSSDLWALGCIIYQLVAGLPPFRAGNEYLIFQKIIKLEYDFPEKFFPKARDLVEKLLVLDATKRLGCEEMEGYGPLKAHPFFESVTWENLHQQTPPKLTAYLPAMSEDDEDCYGNYDNLLSQFGCMQVSSSSSSHSLSASDTGLPQRSGSNIEQYIHDLDSNSFELDLQFSEDEKRLLLEKQAGGNPWHQ
modifications: GST fusion tag
notes: PDK1 mutant lacking the putative C-terminal PH domain, residues 1-450, GST fusion
[3]; PtdIns(3,4,5)P3 present
  fold reduction of the rate of activation of GST-PKBα compared to full length wild-type GST-PDK1: about 30 fold
